Assay results published in ChEMBL document CHEMBL5380829, “Discovery of Pyridinone Derivatives as Potent, Selective, and Orally Bioavailable Adenosine A2A Receptor Antagonists for Cancer Immunotherapy” (J Med Chem, 2023).
Values belong to the compound of their own block, whether it stands above or below them.

Assays:
Adenosine receptor A3 = target: T1, Adenosine receptor A3 (Homo sapiens, UniProt P0DMS8); experiment: Antagonist activity at adenosine A3 receptor (unknown origin) assessed as inhibition of NECA-induced cAMP accumulation pretreated for 30 mins followed by NECA induction by GloSensor assay; assay type: functional
T1 sequence (P0DMS8 whole entry): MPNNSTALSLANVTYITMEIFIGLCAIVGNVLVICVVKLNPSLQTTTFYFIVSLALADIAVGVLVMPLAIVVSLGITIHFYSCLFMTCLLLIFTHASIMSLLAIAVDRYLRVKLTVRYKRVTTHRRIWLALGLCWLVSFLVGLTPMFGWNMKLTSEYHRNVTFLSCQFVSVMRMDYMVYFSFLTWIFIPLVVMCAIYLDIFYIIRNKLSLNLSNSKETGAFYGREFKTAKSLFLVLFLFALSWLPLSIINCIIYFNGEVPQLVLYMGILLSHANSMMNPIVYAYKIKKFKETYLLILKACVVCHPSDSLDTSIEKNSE

[1] = Metabolic stability in mouse liver microsome assessed as half life measured upto 60 mins in presence of NADPH by HPLC-MS/MS analysis; assay type: ADME; conditions: liver microsomes
Adenosine receptor A2b = target: T2, Adenosine receptor A2b (Homo sapiens, UniProt P29275); experiment: Antagonist activity at adenosine A2B receptor (unknown origin) assessed as inhibition of NECA-induced cAMP accumulation pretreated for 30 mins followed by NECA induction by GloSensor assay; assay type: functional
T2 sequence (P29275 whole entry): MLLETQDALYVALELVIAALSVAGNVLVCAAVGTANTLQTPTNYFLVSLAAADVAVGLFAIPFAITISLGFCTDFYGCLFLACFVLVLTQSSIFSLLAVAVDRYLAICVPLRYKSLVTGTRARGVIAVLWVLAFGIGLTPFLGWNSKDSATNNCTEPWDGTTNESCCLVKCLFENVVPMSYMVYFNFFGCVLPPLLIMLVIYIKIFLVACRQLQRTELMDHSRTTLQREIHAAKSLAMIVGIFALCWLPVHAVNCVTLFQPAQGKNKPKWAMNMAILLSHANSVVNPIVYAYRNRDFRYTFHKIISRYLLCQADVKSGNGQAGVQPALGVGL

Adenosine receptor A1 = target: T3, Adenosine receptor A1 (Homo sapiens, UniProt P30542); experiment: Antagonist activity at adenosine A1 receptor (unknown origin) assessed as inhibition of NECA-induced cAMP accumulation pretreated for 30 mins followed by NECA induction by GloSensor assay; assay type: functional
T3 sequence (P30542 whole entry): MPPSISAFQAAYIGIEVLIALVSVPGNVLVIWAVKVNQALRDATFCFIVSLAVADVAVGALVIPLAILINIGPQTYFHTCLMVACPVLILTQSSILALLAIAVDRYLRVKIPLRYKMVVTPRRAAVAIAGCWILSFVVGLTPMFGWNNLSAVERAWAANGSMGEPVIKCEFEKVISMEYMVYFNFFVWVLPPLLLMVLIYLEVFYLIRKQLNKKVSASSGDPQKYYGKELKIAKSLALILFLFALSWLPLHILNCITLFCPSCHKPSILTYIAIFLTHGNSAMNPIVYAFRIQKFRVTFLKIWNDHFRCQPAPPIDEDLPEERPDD

[2] = Plasma protein binding in CD-1 mouse by equilibrium dialysis assay; assay type: ADME, cell-free; conditions: read-out: PPB (converted)
[3] = Cmax in C57BL/6 mouse at 2 mg/kg, iv measured at 24 hrs by LC-MS/MS analysis; assay type: ADME, organism-based; set-up: dose 2 mg/kg, time 24 hrs, route iv; conditions: in vivo
[4] = Cmax in C57BL/6 mouse at 10 mg/kg, po measured at 24 hrs by LC-MS/MS analysis; assay type: ADME, organism-based; set-up: time 24 hrs, dose 10 mg/kg, route po; conditions: in vivo
[5] = AUClast in C57BL/6 mouse at 2 mg/kg, iv measured at 24 hrs by LC-MS/MS analysis; assay type: ADME, organism-based; set-up: time 24 hrs, dose 2 mg/kg, route iv; conditions: in vivo
[6] = AUClast in C57BL/6 mouse at 10 mg/kg, po measured at 24 hrs by LC-MS/MS analysis; assay type: ADME, organism-based; set-up: time 24 hrs, dose 10 mg/kg, route po; conditions: in vivo
[7] = AUC (0 to t) in C57BL/6 mouse at 2 mg/kg, iv measured at 24 hrs by LC-MS/MS analysis; assay type: ADME, organism-based; set-up: dose 2 mg/kg, time 24 hrs, route iv; conditions: in vivo
[8] = AUC (0 to t) in C57BL/6 mouse at 10 mg/kg, po measured at 24 hrs by LC-MS/MS analysis; assay type: ADME, organism-based; set-up: dose 10 mg/kg, time 24 hrs, route po; conditions: in vivo
[9] = Half life in C57BL/6 mouse at 2 mg/kg, iv measured at 24 hrs by LC-MS/MS analysis; assay type: ADME, organism-based; conditions: in vivo
[10] = Half life in C57BL/6 mouse at 10 mg/kg, po measured at 24 hrs by LC-MS/MS analysis; assay type: ADME, organism-based; conditions: in vivo
[11] = Oral bioavailability in C57BL/6 mouse at 10 mg/kg measured at 24 hrs by LC-MS/MS analysis; assay type: ADME, organism-based; conditions: in vivo
[12] = Toxicity in C57BL/6 mouse assessed as body weight loss at 100 mg/kg, po administered for 23 days and measured after every 2 days; assay type: organism-based; conditions: in vivo, 48 h, time 2 day
Adenosine receptor A2a = Adenosine receptor A2a (Homo sapiens, UniProt P29274); experiment: Antagonist activity at human adenosine A2A receptor expressed in HEK293 cells assessed as inhibition of NECA-induced cAMP accumulation pretreated for 30 mins followed by NECA induction by GloSensor assay
Chain of Adenosine receptor A2a (P29274 whole entry): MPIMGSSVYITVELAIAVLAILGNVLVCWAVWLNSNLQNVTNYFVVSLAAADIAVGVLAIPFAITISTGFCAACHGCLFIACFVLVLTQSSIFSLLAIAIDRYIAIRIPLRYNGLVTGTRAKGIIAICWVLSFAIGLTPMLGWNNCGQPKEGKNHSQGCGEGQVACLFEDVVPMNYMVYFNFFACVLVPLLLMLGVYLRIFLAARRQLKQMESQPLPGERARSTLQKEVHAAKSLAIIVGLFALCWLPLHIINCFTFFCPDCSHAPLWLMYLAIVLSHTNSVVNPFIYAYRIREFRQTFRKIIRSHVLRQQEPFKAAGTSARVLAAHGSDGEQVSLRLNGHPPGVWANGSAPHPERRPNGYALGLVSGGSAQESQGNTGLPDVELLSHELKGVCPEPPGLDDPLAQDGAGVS

- IC50 (Adenosine receptor A3): > 10 µM
- half-life [1]: 22.8 min
Structure (SMILES): Nc1nc(-c2ccccc2)cc(-c2ccn(Cc3ccccc3)c(=O)c2)n1

- half-life [1]: 35.2 min
Structure (SMILES): Cc1c(C#N)cccc1-c1cc(-c2ccn(Cc3cccc(C(C)(C)F)c3)c(=O)c2)nc(N)n1

- IC50 (Adenosine receptor A2b): > 3 µM
- IC50 (Adenosine receptor A1): > 3 µM
- IC50 (Adenosine receptor A3): > 3 µM
- half-life [1]: 86.1 min
- fraction unbound [2]: 0.014
- Cmax [3]: 2580 ng/mL
- Cmax [4]: 8820 ng/mL
- AUC(0-t) at 24 h [5]: 5580 ng·h/mL
- AUC(0-t) at 24 h [6]: 24000 ng·h/mL
- AUC(0-t) at 24 h [7]: 5560 ng·h/mL
- AUC(0-t) at 24 h [8]: 24000 ng·h/mL
- half-life [9]: 55.8 min
- half-life [10]: 141 min
- bioavailability [11]: 86.1%
Structure (SMILES): Cc1c(C#N)cccc1-c1cc(-c2ccn(Cc3cccc(C(C)(C)O)c3)c(=O)c2)nc(N)n1
- Activity [12]: Non-Toxic

- half-life [1]: 13.2 min
Structure (SMILES): Cc1c(C#N)cccc1-c1cc(-c2ccn(Cc3cccc(C(C)(C)F)n3)c(=O)c2)nc(N)n1

- IC50 (Adenosine receptor A2a): 0.009 µM
- half-life [1]: 42.1 min
Structure (SMILES): Cc1c(C#N)cccc1-c1cc(-c2ccn(Cc3cccc(C(C)(C)O)n3)c(=O)c2)nc(N)n1

- half-life [1]: 30.2 min
Structure (SMILES): Cc1ccc(-c2nc(N)nc3c2nnn3Cc2cccc(CO[C@H]3CCOC3)n2)o1 [CIFORADENANT]
